Test results as given in patent US20250340532A1, “HETEROCYCLIC COMPOUND CCR4 INHIBITOR AND USER THEREOF” (Xizang Haisco Pharmaceutical Co., Ltd., priority 2022, published 2025).

Legend:
CCR4 = target: T1, CCR4 (Homo sapiens, UniProt P51679); assay: Calcium flow detected by FLIPR; format: cell-based; details: CCR4/HEK293 cells, agonist CCL17, Fluo-4 calcium signal
T1 construct: expressed in transfected cells; host or cells: HEK293
T1 sequence (P51679 1-360): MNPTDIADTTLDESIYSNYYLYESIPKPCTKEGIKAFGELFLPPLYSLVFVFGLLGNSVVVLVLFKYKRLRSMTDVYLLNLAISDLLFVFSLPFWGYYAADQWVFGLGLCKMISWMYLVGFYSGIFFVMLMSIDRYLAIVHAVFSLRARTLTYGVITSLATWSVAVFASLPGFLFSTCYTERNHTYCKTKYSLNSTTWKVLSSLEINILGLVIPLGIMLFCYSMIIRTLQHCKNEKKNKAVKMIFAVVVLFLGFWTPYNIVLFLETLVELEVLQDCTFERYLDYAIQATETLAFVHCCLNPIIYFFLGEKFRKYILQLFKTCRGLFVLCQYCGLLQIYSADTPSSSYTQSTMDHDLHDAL
Protocol: CCR4/HEK293 cells were added to a 384-well cell culture plate (Greiner #781946) at a rate of 20 μL/well (20,000 cells/well) and incubated overnight in a 37° C., 5% CO2 incubator (Incubator, Thermo). On the second day, the 384-well cell culture plate was taken out of the incubator and the culture medium was removed; Then, 20 μL of detection buffer and 20 μL of 2X Fluo-4 Direct™ (Invitrogen, Cat #F10471) were added. Then, compounds were added at 10 μL/well (compounds were subjected to 4-fold serial dilution, and the highest detection concentration was 10 μM), and the cells were incubated in a 37° C., 5% CO2 incubator for 50 min, and then incubated at room temperature for 10 min. The 384-well culture plate was placed in FLIPR ([…]), 10 μL of 6X agonist CCL17 was added by using an automatic loader, and the fluorescence signal was read immediately. The mean and standard error (Mean±SEM) were statistically analyzed using Graphpad Prism software, and the IC50 value was calculated.
The experimental results are shown in Table 3, where A represents IC50<100 nm; B represents 100 nM≤IC50<500 nM, and C represents 500 nM≤IC50.

[1] = Pharmacokinetic test in rats; format: in vivo, SD rats; details: for AUC / clearance / Vd: male, SD, rat, plasma; for Vd: read-out: Vdss
Protocol: 1.1 Experimental animals: male SD rats, about 220 g, 6-8 weeks old, 6 rats/compound. Purchased from Chengdu Ddossy Experimental Animals Co., Ltd.
1.2 Experimental design: on the day of the experiment, 36 SD rats were randomly grouped according to their body weights. The animals were fasted with water available for 12 to 14 h one day before the administration and were fed 4 h after the administration.
(§1) Before and after the administration, 0.15 ml of blood was taken from the orbit of the animals under isoflurane anesthesia and placed in an EDTAK2 centrifuge tube. The blood was centrifuged at 5000 rpm and 4° C. for 10 min to collect plasma. The blood collection time points for the intravenous administration group and intragastric administration group were: 0, 5 min, 15 min, 30 min, 1 h, 2 h, 4 h, 6 h, 8 h and 24 h. Before analysis and detection, all samples were stored at −80° C., and a quantitative analysis of samples was performed using LC-MS/MS.

[2] = Pharmacokinetic test in monkeys; format: in vivo, cynomolgus monkeys; details: for AUC(0-t) / clearance / Vd: male, cynomolgus monkey, plasma; for Vd: read-out: Vdss
Protocol: Experimental animals: Male cynomolgus monkeys, 3-5 kg, 3-6 years old, 4 monkeys/compound. purchased from Suzhou Xishan Biotechnology Inc.
Experimental method: On the day of the experiment, 8 monkeys were randomly grouped according to their body weights. The animals were fasted with water available for 14 to 18 h one day before the administration, and were fed 4 h after the administration.
Before and after the administration, 1.0 mL of blood samples were drawn from the limb veins and placed in an EDTAK2 centrifuge tube. Centrifugation was carried out at 5000 rpm at 4° C. for 10 min, and the plasma was collected. The blood collection time points for the intravenous group and intragastric administration group were: 0 min, 5 min, 15 min, 30 min, 1 h, 2 h, 4 h, 6 h, 8 h, 10 h, 12 h, 24 h, and 48 h. Before analysis and detection, all samples were stored at −80° C., and a quantitative analysis of samples was performed using LC-MS/MS.

[3] = Pharmacokinetic test in mice; format: in vivo, C57 mice; details: for AUC(0-t) / clearance / Vd: male, C57, mouse, plasma; for Vd: read-out: Vdss
Protocol: 1.1 Experimental animals: Male C57 mice, 20-25 g, 6 mice/compound. Purchased from Chengdu Ddossy Experimental Animals Co., Ltd.
1.2 Experimental design: On the day of the experiment, 24 C57 mice were randomly grouped according to their body weight. The animals were fasted with water available for 12 to 14 h one day before the administration and were fed 4 h after the administration.
as §1, with “0.06 mL” for “0.15 ml”, “intravenous” for “intravenous administration”, “0 min,” for “0,”, “7” for “6 h, 8”

SMILES: Cc1nc(N2CC(C3CN(C4CC(C)(C(=O)O)C4)CCO3)C2)nc(NC(C)c2ccc(Cl)cc2Cl)c1Cl (single isomer, unassigned) [Compound 9 isomer 3]
- IC50 (CCR4): < 100 nM
- F ([1]; i.g. 10 mg/kg): 98.7 ± 19%
- AUC ([1]; iv, i.v. 2.5 mg/kg): 6280 ± 402 ng·h/mL
- clearance ([1]; iv, i.v. 2.5 mg/kg): 6.61 ± 0.42 mL/min/kg
- Vd ([1]; iv, i.v. 2.5 mg/kg): 1.49 ± 0.13 L/kg
- AUC ([1]; po, i.g. 10 mg/kg): 24800 ± 4810 ng·h/mL
- F ([2]; i.g. 5 mg/kg): 72.8 ± 57%
- AUC(0-t) ([2]; iv, i.v. 1 mg/kg): 6930 ± 1440 ng·h/mL
- clearance ([2]; iv, i.v. 1 mg/kg): 2.44 ± 0.51 mL/min/kg
- Vd ([2]; iv, i.v. 1 mg/kg): 0.995 ± 0.088 L/kg
- AUC(0-t) ([2]; po, i.g. 5 mg/kg): 25200 ± 19900 ng·h/mL

SMILES: Cc1nc(N2CC(F)(C3CN(C4CC(C)(C(=O)O)C4)CCO3)C2)nc(N[C@H](C)c2ccc(Cl)cc2Cl)c1Cl (single isomer, unassigned) [Compound 64 isomer 3]
- IC50 (CCR4): < 100 nM
- F ([1]; i.g. 10 mg/kg): 108 ± 21%
- AUC ([1]; iv, i.v. 2.5 mg/kg): 6020 ± 1390 ng·h/mL
- clearance ([1]; iv, i.v. 2.5 mg/kg): 6.85 ± 1.2 mL/min/kg
- Vd ([1]; iv, i.v. 2.5 mg/kg): 1.38 ± 0.25 L/kg
- AUC ([1]; po, i.g. 10 mg/kg): 26100 ± 5150 ng·h/mL
- F ([3]; i.g. 10 mg/kg): 118 ± 4.5%
- AUC(0-t) ([3]; iv, i.v. 2.5 mg/kg): 4490 ± 361 ng·h/mL
- clearance ([3]; iv, i.v. 2.5 mg/kg): 9.26 ± 0.73 mL/min/kg
- Vd ([3]; iv, i.v. 2.5 mg/kg): 1.94 ± 0.053 L/kg
- AUC(0-t) ([3]; po, i.g. 10 mg/kg): 21200 ± 815 ng·h/mL

SMILES: Cc1nc(N2CCC(C3CN(CCC(=O)O)CCO3)CC2)nc(NC(C)c2ccc(Cl)cc2Cl)c1Cl (single isomer, unassigned) [Compound 76 isomer 2]
- IC50 (CCR4): < 100 nM
- F ([3]; i.g. 10 mg/kg): 123 ± 14%
- AUC(0-t) ([3]; iv, i.v. 2.5 mg/kg): 1790 ± 125 ng·h/mL
- clearance ([3]; iv, i.v. 2.5 mg/kg): 23.1 ± 1.7 mL/min/kg
- Vd ([3]; iv, i.v. 2.5 mg/kg): 1.44 ± 0.12 L/kg
- AUC(0-t) ([3]; po, i.g. 10 mg/kg): 8840 ± 1010 ng·h/mL

SMILES: Cc1nc(N2CC3C(C2)C3C2CN(C3CC(C)(C(=O)O)C3)CCO2)nc(NC(C)c2ccc(Cl)cc2Cl)c1Cl (single isomer, unassigned) [Compound 78 isomer 3]
- IC50 (CCR4): < 100 nM
- F ([1]; i.g. 10 mg/kg): >98%
- AUC ([1]; iv, i.v. 2.5 mg/kg): 4560 ± 638 ng·h/mL
- clearance ([1]; iv, i.v. 2.5 mg/kg): 9.22 ± 1.2 mL/min/kg
- Vd ([1]; iv, i.v. 2.5 mg/kg): 2.07 ± 0.28 L/kg
- AUC ([1]; po, i.g. 10 mg/kg): 28400 ± 7070 ng·h/mL

SMILES: C[C@@H](Nc1cc(N2CC(C3CN(C4CC(C)(C(=O)O)C4)CCO3)C2)ccc1Cl)c1ccc(Cl)cc1Cl (single isomer, unassigned) [Compound 83 isomer 1]
- IC50 (CCR4): < 100 nM
- F ([1]; i.g. 10 mg/kg): >98%
- AUC ([1]; iv, i.v. 2.5 mg/kg): 7320 ± 1280 ng·h/mL
- clearance ([1]; iv, i.v. 2.5 mg/kg): 5.53 ± 1 mL/min/kg
- Vd ([1]; iv, i.v. 2.5 mg/kg): 2.25 ± 0.27 L/kg
- AUC ([1]; po, i.g. 10 mg/kg): 37000 ± 2820 ng·h/mL
- F ([3]; i.g. 10 mg/kg): 91.6 ± 12%
- AUC(0-t) ([3]; iv, i.v. 2.5 mg/kg): 7250 ± 726 ng·h/mL
- clearance ([3]; iv, i.v. 2.5 mg/kg): 5.69 ± 0.6 mL/min/kg
- Vd ([3]; iv, i.v. 2.5 mg/kg): 1.77 ± 0.069 L/kg
- AUC(0-t) ([3]; po, i.g. 10 mg/kg): 26600 ± 3520 ng·h/mL
- F ([2]; i.g. 5 mg/kg): 76.8 ± 27%
- AUC(0-t) ([2]; iv, i.v. 1 mg/kg): 15800 ± 1740 ng·h/mL
- clearance ([2]; iv, i.v. 1 mg/kg): 1.02 ± 0.14 mL/min/kg
- Vd ([2]; iv, i.v. 1 mg/kg): 0.754 ± 0.15 L/kg
- AUC(0-t) ([2]; po, i.g. 5 mg/kg): 60700 ± 21600 ng·h/mL

SMILES: C#Cc1ccc(C(C)Nc2cc(N3CC([C@H]4CCCN([C@H]5C[C@](C)(C(=O)O)C5)C4)C3)nc3ccnn23)c(Cl)c1 (some centres unmarked) [Compound 22]
- IC50 (CCR4): < 100 nM

SMILES: C#Cc1ccc(C(C)Nc2cc(N3CC([C@H]4CCCN([C@H]5C[C@](C)(C(=O)O)C5)C4)C3)ncn2)c(Cl)c1 (some centres unmarked) [Compound 23]
- IC50 (CCR4): < 100 nM

SMILES: C[C@@H](Nc1cc(N2CC([C@H]3CCCN(CCO)C3)C2)nc2ccnn12)c1ccc(Cl)cc1Cl [Compound 24]
- IC50 (CCR4): < 100 nM

SMILES: C[C@@H](Nc1cc(N2CC([C@H]3CCCN([C@H]4C[C@](C)(C(=O)O)C4)C3)C2)n2nccc2n1)c1ccc(Cl)cc1Cl [Compound 25]
- IC50 (CCR4): < 100 nM

SMILES: Cc1nc(N[C@H](C)c2ccc(Cl)cc2Cl)cc(N2CC([C@H]3CCCN([C@H]4C[C@](C)(C(=O)O)C4)C3)C2)n1 [Compound 26]
- IC50 (CCR4): < 100 nM

SMILES: C[C@@H](Nc1cc(N2CC([C@H]3CCCN(CCO)C3)C2)ncn1)c1ccc(Cl)cc1Cl [Compound 27]
- IC50 (CCR4): < 100 nM

SMILES: Cc1nc(N2CC([C@@H]3CN(CCO)CCO3)C2)nc(N[C@H](C)c2ccc(Cl)cc2Cl)c1Cl [Compound 31]
- IC50 (CCR4): < 100 nM

SMILES: C[C@@H](Nc1nc(N2CC([C@H]3CCCN([C@H]4C[C@](C)(C(=O)O)C4)C3)C2)c2sccc2n1)c1ccc(Cl)cc1Cl [Compound 33]
- IC50 (CCR4): < 100 nM

SMILES: C[C@@H](Nc1nc2c(c(N3CC([C@H]4CCCN([C@H]5C[C@](C)(C(=O)O)C5)C4)C3)n1)CCC2)c1ccc(Cl)cc1Cl [Compound 34]
- IC50 (CCR4): 100 to 500 nM
